Test results reported in US20230121689A1, “CEPHALOSPORIN ANTIBACTERIAL COMPOUND AND PHARMACEUTICAL APPLICATION THEREOF” (priority 2020, published 2023).
≈ marks a conversion by molar mass, not a printed value. Read-outs that look alike come from different tables or passages of the source.

Experiments:
[1] = test system: Carbapenem-resistant Pseudomonas aeruginosa (CRPA, Pseudomonas aeruginosa); assay: Test Example 2: antibacterial activity test (MIC); format: cell-based
Protocol: (§1) 1. The test compounds were dissolved in sterile normal saline, vortexed for uniformly mixing, and diluted in a 2-fold dilution with the sterile normal saline (11 concentration points in total). The test concentration range was 32-0.031 μg/mL, and two duplicate wells were set for each concentration. Additional wells without drug dosing were set as growth controls. 2. 4 μL of the diluent was added to 196 μL of the bacterial suspension in a 96-well plate (the bacterial count in the bacterial suspension was 2-8×10^5 colony forming units/mL). 3.
(§2) The minimum inhibitory concentration (MIC) assay was performed with reference to the Clinical and Laboratory Standards Institute (CLSI) guidelines.

[2] = test system: Carbapenem-resistant Enterobacteriaceae (CRE, Klebsiella pneumoniae); assay: Test Example 2: antibacterial activity test (MIC); format: cell-based
Protocol: as §1, §2

[3] = test system: Carbapenem-resistant Acinetobacter baumannii (CRAB, Acinetobacter baumannii); assay: Test Example 2: antibacterial activity test (MIC); format: cell-based
Protocol: as §1, §2

[4] = test system: Control strain Escherichia coli ATCC 25922; assay: Test Example 2: antibacterial activity test (MIC); format: cell-based
Protocol: as §1, §2

[5] = test system: Control Strain Pseudomonas aeruginosa ATCC 27853; assay: Test Example 2: antibacterial activity test (MIC); format: cell-based
Protocol: as §1, §2

[6] = Test Example 3: pharmacokinetic study in cynomolgus monkeys; format: in vivo; details: cynomolgus monkey, plasma, 10 mg/kg single intravenous infusion, individual animals
Protocol: An appropriate amount of a test compound was weighed precisely and added to a container, and 0.9% sodium chloride injection and 0.2 M NaOH solution were added thereto in an ice bath until the test compound was completely dissolved, so that a sample solution at a concentration of 2 mg/mL was obtained followed by storage at 2-8° C. for later use.
Species and strain: cynomolgus monkey Animal grade: general grade Animal source: Guangxi Xiongsen Primate Experimental Animal Breeding Development Co., Ltd. Number of the using of laboratory animal: SYXK (Su) 2019-0012
6 cynomolgus monkeys (half male and half female) were selected and randomly divided into 3 groups with 1 animal/sex in each group. The cynomolgus monkeys were administered with the test sample at a dose of 10 mg/kg by the single intravenous infusion. Blood samples were collected from each group of animals at the following time points: before administration, and 5 min, 15 min, 0.5 h, 1 h, 2 h, 4 h, 6 h, and 8 h after administration. In the test, the concentration of each test compound in the plasma of the cynomolgus monkey was detected by the LC-MS/MS method, and the lower limit of quantification of the analysis methods for the plasma samples were all 1 μg/mL. The plasma concentration data were analyzed by the non-compartmental analysis (NCA) of the analysis software for pharmacokinetic data, WinNonlin, pharmacokinetic parameters were calculated, and pharmacokinetic characteristics of the test compounds in cynomolgus monkeys after administration were investigated, with the results shown in the following table

[7] = test system: Carbapenem-resistant Enterobacteriaceae (CRE); assay: Test Example 1: antibacterial activity test (MIC); format: cell-based
Protocol: (§3) The test compounds were diluted in a gradient and used for an MIC assay on the test strains. The test compounds at an initial assay concentration of 32 μg/mL were diluted in a 2-fold gradient (11 concentration points in total), and two duplicate wells were set for each concentration. Additional wells without drug dosing were set as growth controls. The minimum inhibitory concentration (MIC) assay was performed with reference to the Clinical and Laboratory Standards Institute (CLSI) guidelines.
(§4) After the frozen strains were subcultured, a single colony was picked and re-suspended in normal saline or sterile water in a tube. The bacterial suspension was vortexed and adjusted to 0.5 McF using a spectrophotometer at the wavelength of 530 nm. The bacterial solution was taken by a pipette, added to a culture medium, diluted and mixed well, and seeded to a bacterial assay plate.
(§5) The 96-well plate was affixed with a disposable sealing film, shaken and mixed well, and visually observed using a plate reader. The minimum concentration of the compounds capable of inhibiting the growth of bacteria was defined as MIC as compared to the growth controls.

[8] = test system: Carbapenem-resistant Acinetobacter baumannii (CRAB); assay: Test Example 1: antibacterial activity test (MIC); format: cell-based
Protocol: as §3, §4, §5

[9] = test system: Carbapenem-resistant Pseudomonas aeruginosa (CRPA); assay: Test Example 1: antibacterial activity test (MIC); format: cell-based
Protocol: as §3, §4, §5

[10] = both sexes, cynomolgus, iv, 10 mg/kg

Work on `CC(C)(O/N=C(\C(=O)N[C@@H]1C(=O)N2C(C(=O)O)=C(C[N+]3(CCN(CCCNC(=O)c4ccc(O)c(O)c4Cl)C(=O)c4ccc(O)c(O)c4Cl)CCCC3)CS[C@H]12)c1csc(N)n1)C(=O)O` [Compound 10] yielded an MIC ([1]; ID-CAMHB, FDA-CDC AR-BANK #0439 (aac(6′)-Il, aadA1b, BCR1, IMP-18, OXA-50), read-out: ID-CAMHB, MIC) of 0.25 µg/mL, an MIC ([1]; ID-CAMHB, FDA-CDC AR-BANK #0441 (KPC-2), read-out: ID-CAMHB, MIC) of 1 µg/mL and an MIC ([1]; ID-CAMHB, FDA-CDC AR-BANK #0444 (aac(6′)-Il, dfrB5, OXA-4, tet(G), VIM-2), read-out: ID-CAMHB, MIC) of 16 µg/mL. For the same compound, the MIC ([1]; ID-CAMHB, FDA-CDC AR-BANK #0457 (aadA6, VIM-2), read-out: ID-CAMHB, MIC) was 0.0625 µg/mL, the MIC ([2]; ID-CAMHB, FDA-CDC AR-BANK #0361 (TEM-1; SHV-12; KPC-2), read-out: ID-CAMHB, MIC) was 0.25 µg/mL and the MIC ([2]; ID-CAMHB, FDA-CDC AR-BANK #0363 (TEM-1; SHV-12; KPC-2), read-out: ID-CAMHB, MIC) was 0.125 µg/mL. The MIC ([2]; ID-CAMHB, FDA-CDC AR-BANK #0438 (aph(3′)-Ia, dfrA12, KPC-3, OmpK35, oqxA, oqxB, SHV-11), read-out: ID-CAMHB, MIC) was 0.5 µg/mL, the MIC ([2]; ID-CAMHB, FDA-CDC AR-BANK #0453 (KPC-3, OmpK35, oqxA, oqxB, SHV-11, TEM-1B), read-out: ID-CAMHB, MIC) was 2 µg/mL and the MIC ([3]; ID-CAMHB, FDA-CDC AR-BANK #0036 (strB, OXA-65, OXA-24, strA, sul2), read-out: ID-CAMHB, MIC) was 0.125 µg/mL. The MIC ([3]; ID-CAMHB, FDA-CDC AR-BANK #0052 (OXA-58, OXA-100, sul2), read-out: ID-CAMHB, MIC) was 0.0625 µg/mL, the MIC ([3]; ID-CAMHB, FDA-CDC AR-BANK #0063 (OXA-23, OXA-65, OXA-24, sul2), read-out: ID-CAMHB, MIC) was greater than 32 µg/mL and the MIC ([3]; ID-CAMHB, FDA-CDC AR-BANK #0070 (OXA-58, OXA-100, sul2), read-out: ID-CAMHB, MIC) was 0.125 µg/mL. It also gave an MIC ([3]; ID-CAMHB, FDA-CDC AR-BANK #0101 (strB, OXA-65, OXA-24, strA, sul2), read-out: ID-CAMHB, MIC) of 0.5 µg/mL, an MIC ([4]; ATCC25922, ID-CAMHB, ATCC 25922, read-out: ID-CAMHB, MIC) of 0.0625 µg/mL and an MIC ([5]; ATCC27853, ID-CAMHB, ATCC 27853, read-out: ID-CAMHB, MIC) of 0.0625 µg/mL. For the same compound, the AUC(0-inf) [6, 10] was 32900 ng·h/mL, the AUC(0-t) [6, 10] was 29300 ng·h/mL and the clearance [6, 10] was 5.06 mL/min/kg. It also gave a half-life [6, 10] of 37.2 min, a Cmax ([6]; both sexes, cynomolgus, iv, 10 mg/kg, read-out: Cmax) of 35500 ng/mL and an MRT ([6]; both sexes, cynomolgus, iv, 10 mg/kg, read-out: MRT) of 38.4 min. For the same compound, the Vd ([6]; both sexes, cynomolgus, iv, 10 mg/kg, read-out: Vd) was 0.27 L/kg, the Tmax ([6]; both sexes) was 4.8 min and the AUC last ([6]; 10 mg/kg) was 23440 ng·h/mL. The AUCinf ([6]; 10 mg/kg) was 25640 ng·h/mL, the CL ([6]; 10 mg/kg) was 6.5002 mL/min/kg and the Cmax ([6]; 10 mg/kg) was 30640 ng/mL. It also gave an MRT ([6]; 10 mg/kg) of 37.2 min, a Vd ([6]; 10 mg/kg) of 0.31334 L/kg and a t1/2 ([6]; 10 mg/kg) of 33.6 min.

For `C[C@@H](O)[C@H]1C(=O)N2C(C(=O)O)=C(S[C@@H]3CN[C@H](C(=O)N(C)C)C3)[C@H](C)[C@H]12` [Meropenem, reference compound], the MIC ([1]; CAMHB, FDA-CDC AR-BANK #0439, read-out: CAMHB MIC) was greater than 32 µg/mL, the MIC ([1]; CAMHB, FDA-CDC AR-BANK #0441, read-out: CAMHB MIC) was greater than 32 µg/mL and the MIC ([1]; CAMHB, FDA-CDC AR-BANK #0444, read-out: CAMHB MIC) was greater than 32 µg/mL. It also gave an MIC ([1]; CAMHB, FDA-CDC AR-BANK #0457, read-out: CAMHB MIC) greater than 32 µg/mL, an MIC ([2]; read-out: CAMHB MIC, CAMHB, FDA-CDC AR-BANK #0361) of 16 µg/mL (≈ 41.7 µM) and an MIC ([2]; read-out: CAMHB MIC, CAMHB, FDA-CDC AR-BANK #0362) greater than 32 µg/mL. For the same compound, the MIC ([2]; read-out: CAMHB MIC, CAMHB, FDA-CDC AR-BANK #0363) was 32 µg/mL (≈ 83.4 µM), the MIC ([2]; read-out: CAMHB MIC, CAMHB, FDA-CDC AR-BANK #0438) was greater than 32 µg/mL and the MIC ([2]; read-out: CAMHB MIC, CAMHB, FDA-CDC AR-BANK #0453) was greater than 32 µg/mL. The MIC ([3]; CAMHB, FDA-CDC AR-BANK #0036, read-out: CAMHB MIC) was greater than 32 µg/mL, the MIC ([3]; CAMHB, FDA-CDC AR-BANK #0052, read-out: CAMHB MIC) was 16 µg/mL (≈ 41.7 µM) and the MIC ([3]; CAMHB, FDA-CDC AR-BANK #0063, read-out: CAMHB MIC) was greater than 32 µg/mL. It also gave an MIC ([3]; CAMHB, FDA-CDC AR-BANK #0070, read-out: CAMHB MIC) of 8 µg/mL (≈ 20.9 µM), an MIC ([3]; CAMHB, FDA-CDC AR-BANK #0101, read-out: CAMHB MIC) greater than 32 µg/mL and an MIC ([4]; ATCC25922, CAMHB, ATCC 25922, read-out: CAMHB MIC) of no more than 0.0312 µg/mL. It also gave an MIC ([5]; ATCC27853, CAMHB, ATCC 27853, read-out: CAMHB MIC) of 0.5 µg/mL (≈ 1.3 µM), an MIC ([7]; CRE strain No. 100109) greater than 32 µg/mL and an MIC ([7]; CRE strain No. 100186) greater than 32 µg/mL. For the same compound, the MIC ([7]; CRE strain No. 110502) was 32 µg/mL (≈ 83.4 µM), the MIC ([7]; CRE strain No. 110525) was 32 µg/mL (≈ 83.4 µM) and the MIC ([7]; CRE strain No. 311277) was 32 µg/mL (≈ 83.4 µM). For the same compound, the MIC ([8]; CRAB strain No. 100085) was 32 µg/mL (≈ 83.4 µM), the MIC ([8]; CRAB strain No. 100333) was greater than 32 µg/mL and the MIC ([8]; CRAB strain No. 110440) was 32 µg/mL (≈ 83.4 µM). It also gave an MIC ([8]; CRAB strain No. 110477) greater than 32 µg/mL, an MIC ([8]; CRAB strain No. 110517) of 32 µg/mL (≈ 83.4 µM) and an MIC ([9]; CRPA strain No. 100110) of 32 µg/mL (≈ 83.4 µM). The MIC ([9]; CRPA strain No. 110163) was 24 µg/mL (≈ 62.6 µM), the MIC ([9]; CRPA strain No. 110224) was 16 µg/mL (≈ 41.7 µM) and the MIC ([9]; CRPA strain No. 110358) was 4 µg/mL (≈ 10.4 µM). It also gave an MIC ([9]; CRPA strain No. 110390) of 12 µg/mL (≈ 31.3 µM).
